Patent publication US9394544B2, “Ameliorating oxidative stress in neurodegenerative disease via Nox1 targeting” (University of Central Florida Research Foundation, Inc., priority 2013, dated 2016)

Key:
α-synuclein = assay: α-Synuclein protein levels (immunoblot) in N27 cells exposed to PQ; type: cell-based, rat
Procedure: The N27 cells were grown in RPMI 1640 medium containing 10% fetal bovine serum (FBS), 100 U penicillin, and 50 μg/ml streptomycin, in a humidified atmosphere of 5% CO2 at 37° C. N27 cultures were prepared for experiments by plating the cells on polystyrene tissue culture dishes at a density of 0.5×10^5 cells/well in 24-well culture plates with glass coverslip and at 1.5×10^5 cells/well in 6-well culture plates.
For Western blot, brain tissues were lysed on ice in radioimmunoprecipitation assay buffer containing 50 mMTris/HCl, pH 8.0, 150 mM NaCl, 2 mM sodium orthovanadate, 1% Nonidet-P40 (NP-40), 0.5% sodium deoxycholate, and 0.1% SDS, containing 1% of a protease inhibitor mixture (AEBSF, pepstatinA, E-64, bestatin, leupeptin, and aprotinin). The soluble fraction was obtained and equal amounts of cell lysate protein were loaded in each lane of a 12% SDS-PAGE or 4/10% to 20% polyacrylamide gel. After electrophoresis and transfer onto a polyvinylidene difluoride (PVDF) membrane, specific protein bands were detected using appropriate primary antibodies (rabbit anti-Nox1, rabbit anti-α-synuclein, mouse anti-Ubiquitin, mouse anti-tyrosine hydroxylase (TH), and mouse anti-β-actin) and secondary antibodies conjugated to alkaline phosphatase or […] peroxidase (anti-rabbit or anti-mouse) followed by Enhanced Chemifluorescence (ECF) detection or Enhanced Chemiluminescence (ECL).

SN dopaminergic neurons = assay: Stereological count of TH-positive dopaminergic neurons in the SN, PQ rat model; type: in vivo; details: vector+PQ group, or Nox1 shRNA+PQ group
Procedure: The experiments were performed on rats, in accordance with the National Institutes for Health Guide for the Care and Use of Laboratory Animals. All procedures were approved by the local Animal Care and Use Committee. Male Wistar rats (8-10 weeks; Charles River) were maintained in a temperature/humidity-controlled environment under a 12 h light/dark cycle with ad libitum access to food and water. As depicted in FIG. 13A, each animal received four intraperitoneal injections, separated by 1 d, of either vehicle (saline) or PQ (10 mg/kg body weight; b.w.), according to a previously published dose (Manning-Bog et al., 2002; Harraz et al., 2008; Cristovao et al., 2009). All animals were weighed at day 1 and 12. In the studies using the paradigm depicted in FIG. 13A, 4 weeks before starting PQ intraperitoneal injection, animals were stereotaxically injected with various viral constructs at the right SN using the following coordinates: mediolateral, +2.0; anteroposterior, −5.3; dorsoventral, −6.8. […]
Following perfusion with saline and 4% PFA in PBS, brains were removed, and forebrain and midbrain blocks were immersion fixed in 4% PFA and cryoprotected in sucrose. […] The numbers of TH-immunoreactive cells in the SN were counted using an optical fractionator. […]

rat SN = assay: Immunohistochemistry of SN sections, PQ rat model; type: in vivo
Procedure: The experiments were performed on rats, in accordance with the National Institutes for Health Guide for the Care and Use of Laboratory Animals. All procedures were approved by the local Animal Care and Use Committee. Male Wistar rats (8-10 weeks; Charles River) were maintained in a temperature/humidity-controlled environment under a 12 h light/dark cycle with ad libitum access to food and water. As depicted in FIG. 13A, each animal received four intraperitoneal injections, separated by 1 d, of either vehicle (saline) or PQ (10 mg/kg body weight; b.w.), according to a previously published dose (Manning-Bog et al., 2002; Harraz et al., 2008; Cristovao et al., 2009). All animals were weighed at day 1 and 12. In the studies using the paradigm depicted in FIG. 13A, 4 weeks before starting PQ intraperitoneal injection, animals were stereotaxically injected with various viral constructs at the right SN using the following coordinates: mediolateral, +2.0; anteroposterior, −5.3; dorsoventral, −6.8. Animals were organized into four groups: vector+vehicle: stereotaxically injected with adeno-associated virus (AAV) particles containing a green fluorescent protein (GFP) vector (vector) and then intraperitoneally injected with saline (vehicle) (n=10); vector+PQ: stereotaxically injected with vector and then intraperitoneally injected with PQ (n=10); shNox1+PQ: stereotaxically injected with AAV particles harboring Nox1 shRNA and then intraperitoneally injected with PQ (n=10); shNox1+vehicle: stereotaxically injected with Nox1 shRNA and then intraperitoneally injected with vehicle (n=8). AAV containing GFP vector was used as a negative control. Five days after the last PQ intraperitoneal injection, animals were killed. For Western blot analysis, brains were collected and total protein lysates from SN were prepared. For immunohistochemical analysis, animals were intracardially perfused before collecting the brains.
Following perfusion with saline and 4% PFA in PBS, brains were removed, and forebrain and midbrain blocks were immersion fixed in 4% PFA and cryoprotected in sucrose. Serial coronal sections (40 μm) were cut on a cryostat, collected in cryopreservative solution, and stored at −20° C. For immunolabeling studies, sections were incubated at room temperature with blocking solution for 1 h (5% FBS and 0.3% Triton X-100 in PBS, pH 7.5) and then with primary antibodies overnight. Finally, sections were incubated with secondary antibodies in blocking solution at room temperature for 1 h. The primary antibodies used were mouse anti-TH (1:10,000), rabbit anti-Nox1 (1:500), goat anti-4-HNE (1:700), mouse anti-ubiquitin (1:250), rabbit anti-α-synuclein (1:150), and rabbit anti-A11 oligomers (2.5 μg/ml). The secondary antibodies were biotinylated anti-rabbit IgG, anti-goat IgG, or anti-rat IgG (1:200). The staining procedure was performed as indicated by the manufacturer of the Vectastain ABC kit and the reaction product visualized using 3,3′-diaminobenzidine (DAB) reagent in TBS containing 0.02% H2O2. The numbers of TH-immunoreactive cells in the SN were counted using an optical fractionator. Analysis was performed using a system consisting of a Nikon Eclipse E600 microscope (Morrell Instruments) equipped with a computer-controlled LEP BioPoint motorized stage (Ludl Electronic Products), a DEI-750 video camera (Meyer Instruments), a Dell Dimension 4300 computer (Dell), and the Stereo Investigator (v. 4.35) software program (Microbrightfield).
Immunocytochemistry for proteinase K (PK)-resistant α-synuclein was performed based on a methodology reported previously (Neumann et al., 2002), with some modifications. Briefly, fixed cells were permeabilized with 0.1% Tween 20 and then digested for 30 min at 37° C. with PK (10 μg/ml). PK was inactivated with 3 M guanidine thiocyanate in 10 mM Tris-HCl solution for 10 min. Between each step, cells were washed gently three times with PBS. […]

Nox1 = assay: Nuclear localization of Nox1-EGFP in N27 cells (confocal microscopy); type: cell-based, rat; details: N27 cells expressing Nox1-EGFP; 6-OHDA 50 μM 6 h, rotenone 5 μM 18 h
From the text: The observation that Nox1 was induced by a variety of oxidative stimuli in vitro led one to test Nox1 expression in the rat substantia nigra DA (SNDA) neurons administered with 6-OHDA. […] Neither astrocytes nor microglia expressed Nox1, as verified by co-immunostaining of Nox1 with GFAP (astrocytes) or CD11b (microglia) (FIG. 3B). Increased Nox1 transcript was found in the SN as shown by in situ hybridization (FIG. 3C). […] As early as 3 days post 6-OHDA injection, Nox1 expression was increased in the nucleus and in the cytoplasm of DA neurons (FIG. 4A). […] Nuclear expression of the Nox1/Rac1 complex was further analyzed in N27 cells after treatment with 6-OHDA. First, activated Rac1 was detected by immunoprecipitation of nuclear extracts of N27 cells after a 24 h treatment with 6-OHDA. […] Next, it was established that N27 cells stably expressing Nox1 tagged with EGFP at the C-terminus. […] To examine whether nuclear translocation of Nox1 in dopaminergic cells is observed under different conditions that cause dopaminergic neuronal death, mitochondrial respiratory complex inhibitor, rotenone, was tested.

| SMILES | increase of α-synuclein protein levels (α-synuclein; 800 μM, 8 h) | increase of α-synuclein protein levels (α-synuclein; 800 μM, 24 h) | increase of α-synuclein protein levels (α-synuclein; 1000 μM, 8 h) | increase of α-synuclein protein levels (α-synuclein; 1000 μM, 24 h) | dopaminergic neuronal loss (stereological count of TH-positive neurons) (SN dopaminergic neurons) | immunoreactivity of A11 oligomers in the SN (rat SN; PQ, PQ with Nox1 knocked down) | α-Synuclein immunoreactivity in the SN (rat SN; rats, PQ vs vehicle) | 4-HNE immunoreactivity (lipid peroxidation) in the SN (rat SN; rats, PQ vs vehicle, Nox1 shRNA+PQ vs PQ) | Nox1 immunoreactivity in the SN (rat SN; rats, PQ vs vehicle, Nox1 shRNA+PQ vs vector+PQ) | PK-resistant α-synuclein immunoreactivity in the rat SN (rat SN; vector+PQ vs vector+vehicle, Nox1 shRNA+PQ) | ubiquitin immunoreactivity in the rat SN (rat SN; vector+PQ, Nox1 shRNA+PQ) | nuclear localization of Nox1 (Nox1) |
| --- | --- | --- | --- | --- | --- | --- | --- | --- | --- | --- | --- | --- |
| C[n+]1ccc(-c2cc[n+](C)cc2)cc1 [PQ, paraquat] | 55% | 61% | 60% | 27% | 37% | significant increase | increased | increase | upregulation | increase | significant increase |  |
| NCCc1cc(O)c(O)cc1O [6-OHDA, 6-hydroxydopamine] |  |  |  |  |  |  |  |  |  |  |  | translocation of Nox1-EGFP into the nucleus |
